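In this assay, cells in 96-well plates receive the compound at five concentrations for 48 hours. Endpoints are linearly interpolated between the surrounding concentrations. The concentration for 50% growth inhibition is given as GI50.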 Calls of active or inactive are those of the source. Rule as the data show it: active = GI50 up to about 1.1 µM and inactive = higher.
What was measured:
Test in all cases: inhibition of tumour cell growth, NCI panel, 48 h
[1] = tested on: NCI-H460
[2] = tested on: SR
[3] = tested on: DU-145
[4] = tested on: OVCAR-4
[5] = tested on: HCC 2998
[6] = tested on: U-251
[7] = tested on: SK-MEL-5
[8] = tested on: OVCAR-3
[9] = tested on: MDA-MB-231
[10] = tested on: SNB-75
[11] = tested on: K562
[12] = tested on: HCT-116
[13] = tested on: MOLT-4
[14] = tested on: SW-620
[15] = tested on: SF-268
[16] = tested on: RPMI-8226
[17] = tested on: HOP-92
[18] = tested on: SF-295
[19] = tested on: IGROV-1
[20] = tested on: HL-60

Row | SMILES | GI50 [1] | GI50 [2] | GI50 [3] | GI50 [4] | GI50 [5] | GI50 [6] | GI50 [7] | GI50 [8] | GI50 [9] | GI50 [10] | GI50 [11] | GI50 [12] | GI50 [13] | GI50 [14] | GI50 [15] | GI50 [16] | GI50 [17] | GI50 [18] | GI50 [19] | GI50 [20]
1 | Nc1cc2[nH]cnc2c(=O)[nH]1 [DEZAGUANINE] | 10.4 µM (inactive) | 9.1 µM (inactive) | 5.43 µM (inactive) | 20.2 µM (inactive) | 82.8 µM (inactive) | 30.5 µM (inactive) | 63.7 µM (inactive) | 11 µM (inactive) | 49.9 µM (inactive) | 90.8 µM (inactive) | 12.3 µM (inactive) | 16.6 µM (inactive) | 6.28 µM (inactive) | 17.7 µM (inactive) | 15 µM (inactive) | 19.3 µM (inactive) | 77.8 µM (inactive) | > 219 µM (inactive) | 23.1 µM (inactive) | 6.21 µM (inactive)
2 | O=C(O)c1cnc2[nH]ccn2c1=O | > 100 µM (inactive) | > 100 µM (inactive) | > 100 µM (inactive) | > 100 µM (inactive) | > 100 µM (inactive) | > 100 µM (inactive) | > 100 µM (inactive) | > 100 µM (inactive) | > 100 µM (inactive) | > 100 µM (inactive) | > 100 µM (inactive) | > 100 µM (inactive) | > 100 µM (inactive) | > 100 µM (inactive) | > 100 µM (inactive) | > 100 µM (inactive) | > 100 µM (inactive) | > 100 µM (inactive) | > 100 µM (inactive) | > 100 µM (inactive)
3 | CC(=O)Nc1ccc2c3c(cc(O)c2c1)N(C(=O)CCCC(=O)Nc1ccc2c4c(cc(O)c2c1)N(C(=O)OC(C)(C)C)CC4CCl)CC3CCl (configuration not stated) | 1.48 µM (inactive) | 0.0221 µM (active) | 0.769 µM (active) | 1.44 µM (inactive) | 0.771 µM (active) | 0.841 µM (active) | 1.1 µM (active) | 1.1 µM (active) | 1.47 µM (inactive) | 1.99 µM (inactive) | 1.22 µM (inactive) | 0.851 µM (active) | 0.0815 µM (active) | 1.82 µM (inactive) | 0.195 µM (active) | 5.69 µM (inactive) | 2.01 µM (inactive) | 13.4 µM (inactive) | 1.05 µM (active) | 0.118 µM (active)
4 | CCOP(=O)(OCC)C1CC(n2cc(C)c(=O)[nH]c2=O)OC1CO (configuration not stated) | > 100 µM (inactive) | > 100 µM (inactive) | > 100 µM (inactive) | > 100 µM (inactive) | > 100 µM (inactive) | > 100 µM (inactive) | > 100 µM (inactive) | > 100 µM (inactive) | > 100 µM (inactive) | > 100 µM (inactive) | > 100 µM (inactive) | > 100 µM (inactive) | > 100 µM (inactive) | > 100 µM (inactive) | > 100 µM (inactive) | > 100 µM (inactive) | > 100 µM (inactive) | > 100 µM (inactive) | > 100 µM (inactive) | > 100 µM (inactive)
5 | CN1CCN(C(=S)N(C(=O)c2ccc(Cl)cc2)c2ccccc2)CC1 | > 100 µM (inactive) | > 100 µM (inactive) | > 100 µM (inactive) | > 100 µM (inactive) | > 100 µM (inactive) | > 100 µM (inactive) | > 100 µM (inactive) | > 100 µM (inactive) | > 100 µM (inactive) | 41.8 µM (inactive) | > 100 µM (inactive) | – | > 100 µM (inactive) | > 100 µM (inactive) | > 100 µM (inactive) | > 100 µM (inactive) | > 100 µM (inactive) | > 100 µM (inactive) | > 100 µM (inactive) | > 100 µM (inactive)
6 | COC(CC1(/C=C/O[Si](C(C)C)(C(C)C)C(C)C)C(=O)N(C)c2ccccc21)OC (configuration not stated) | 45.9 µM (inactive) | 31.6 µM (inactive) | > 100 µM (inactive) | 34.5 µM (inactive) | 64 µM (inactive) | 51.9 µM (inactive) | 36.8 µM (inactive) | > 100 µM (inactive) | > 100 µM (inactive) | > 100 µM (inactive) | 51.5 µM (inactive) | 28.5 µM (inactive) | 55.3 µM (inactive) | > 100 µM (inactive) | 36.6 µM (inactive) | 15.3 µM (inactive) | > 100 µM (inactive) | 28.6 µM (inactive) | – | 51.8 µM (inactive)
7 | O=C1NC(N2CCCC(CO)C2)=N/C1=C\c1ccc(Cl)cc1 (configuration not stated) | – | > 100 µM (inactive) | > 100 µM (inactive) | > 100 µM (inactive) | 35.9 µM (inactive) | > 100 µM (inactive) | > 100 µM (inactive) | > 100 µM (inactive) | > 100 µM (inactive) | 51.1 µM (inactive) | > 100 µM (inactive) | > 100 µM (inactive) | > 100 µM (inactive) | > 100 µM (inactive) | > 100 µM (inactive) | > 100 µM (inactive) | 90.8 µM (inactive) | > 100 µM (inactive) | 37.1 µM (inactive) | > 100 µM (inactive)
